Laboratory results from the NIST ThermoML archive (doi:10.1016/j.jct.2004.10.011).

Details: Liquid, Vibrating tube method

Cc1ccccc1 [toluene]
mass density [kg/m3]
Details | 298.15 K | 308.15 K | 318.15 K | 328.15 K
100 kPa | 862.1 | 853 | 843.8 | 834.5
2130 kPa | 863.6 | 854.5 | 845.6 | 836.5
4150 kPa | 865.2 | 856.2 | 847.3 | 838.3
6180 kPa | 866.7 | 857.8 | 849 | 840.1
8210 kPa | 868.2 | 859.3 | 850.6 | 841.8
10230 kPa | 869.6 | 860.9 | 852.3 | 843.5
11250 kPa | 870.4 | 861.7 | 853.1 | 844.4
12260 kPa | 871.1 | 862.4 | 853.9 | 845.2
14290 kPa | 872.5 | 863.9 | 855.4 | 846.9
16310 kPa | 873.9 | 865.4 | 857 | 848.6
18340 kPa | 875.3 | 866.8 | 858.5 | 850.1
20370 kPa | 876.7 | 868.2 | 860 | 851.7
22390 kPa | 878 | 869.6 | 861.5 | 853.3
24420 kPa | 879.3 | 871 | 862.9 | 854.8
26450 kPa | 880.6 | 872.4 | 864.4 | 856.3
28470 kPa | 881.9 | 873.8 | 865.8 | 857.8
29490 kPa | 882.5 | 874.4 | 866.5 | 858.5
30500 kPa | 883.2 | 875 | 867.2 | 859.3
32530 kPa | 884.4 | 876.3 | 868.5 | 860.7
34550 kPa | 885.6 | 877.6 | 869.9 | 862.1
36580 kPa | 886.8 | 878.9 | 871.2 | 863.5
38600 kPa | 888 | 880.1 | 872.5 | 864.9
39620 kPa | 888.6 | 880.7 | 873.2 | 865.5

CCC(=O)c1ccccc1 [ethyl phenyl ketone]
mass density [kg/m3]
Details | 298.15 K | 308.15 K | 318.15 K | 328.15 K
100 kPa | 1005.3 | 996.8 | 988.3 | 979.6
2130 kPa | 1006.4 | 998 | 989.6 | 981.1
4150 kPa | 1007.5 | 999.2 | 990.9 | 982.4
6180 kPa | 1008.7 | 1000.4 | 992.1 | 983.7
8210 kPa | 1009.8 | 1001.6 | 993.3 | 985
10230 kPa | 1010.9 | 1002.8 | 994.6 | 986.2
11250 kPa | 1011.5 | 1003.4 | 995.2 | 986.9
12260 kPa | 1012.1 | 1003.9 | 995.8 | 987.5
14290 kPa | 1013.2 | 1005.1 | 997 | 988.7
16310 kPa | 1014.3 | 1006.2 | 998.1 | 990
18340 kPa | 1015.3 | 1007.3 | 999.3 | 991.2
20370 kPa | 1016.4 | 1008.4 | 1000.4 | 992.3
22390 kPa | 1017.5 | 1009.5 | 1001.6 | 993.5
24420 kPa | 1018.5 | 1010.6 | 1002.7 | 994.7
26450 kPa | 1019.5 | 1011.7 | 1003.8 | 995.9
28470 kPa | 1020.5 | 1012.8 | 1004.9 | 997.1
29490 kPa | 1021 | 1013.2 | 1005.5 | 997.6
30500 kPa | 1021.6 | 1013.8 | 1006 | 998.2
32530 kPa | 1022.5 | 1014.8 | 1007.1 | 999.3
34550 kPa | 1023.5 | 1015.8 | 1008.2 | 1000.4
36580 kPa | 1024.5 | 1016.8 | 1009.2 | 1001.5
38600 kPa | 1025.5 | 1017.9 | 1010.3 | 1002.6
39620 kPa | 1025.9 | 1018.3 | 1010.8 | 1003.2
